Measured values reported in patent US20250129028A1, “COMPOUNDS AND METHODS FOR YAP/TEAD MODULATION AND INDICATIONS THEREFOR” (Opna Bio SA, priority 2022, published 2025).

The molecules below were run on TEAD-dependent transcription (assay: TEAD-dependent transcription cell-based reporter assay (MSTO-211H+12XGTIIC luciferase)). Conditions: Homo sapiens; MSTO-211H+12XGTIIC cell line, luciferase signal normalized to cell viability, 24 hours compound incubation; read-out: MSTO-211H GMean IC50 (uM) Cell Assay Reporter Cell Variant: TEAD.
Parameters: species or system human
Method in brief: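 MSTO-211H mesothelioma cells stably carrying a 12xGTIIC TEAD-response-element luciferase reporter, treated with serial compound dilutions for 24 h at 37 °C. Luminescence normalized to CellTiter-Fluor viability signal; % inhibition versus DMSO and 20 μM K-975 controls, IC50 by nonlinear regression.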

SMILES | IC50
C=CC(=O)N1CC(C(=O)N2CCc3ccc(Oc4ccc(C(F)(F)F)c(F)c4)cc3C2)C1 [P-0118, 1-(3-(7-(3-fluoro-4-(trifluoromethyl)phen-oxy)-1,2,3,4-tetrahydro-isoquinoline-2-carbon-yl)azetidin-1-yl)prop-2-en-1-one] | 0.001 to 10 µM
C=CC(=O)N1CCC(C(=O)N2CCc3ccc(Oc4ccc(C(F)(F)F)c(F)c4)cc3C2)C1 (stereo not shown) [P-0119, 1-(3-(7-(3-fluoro-4-(trifluoromethyl)phen-oxy)-1,2,3,4-tetrahydro-isoquinoline-2-carbon-yl)pyrrolidin-1-yl)prop-2-en-1-one] | 0.001 to 10 µM
C=CC(=O)N1CCCC(C(=O)N2CCc3ccc(Oc4ccc(C(F)(F)F)c(F)c4)cc3C2)C1 (stereo not shown) [P-0120, 1-(3-(7-(3-fluoro-4-(trifluoromethyl)phen-oxy)-1,2,3,4-tetrahydro-isoquinoline-2-carbon-yl)piperidin-1-yl)prop-2-en-1-one] | 0.001 to 10 µM
C=CC(=O)N1CCC(C(=O)N2CCc3ccc(Oc4ccc(C(F)(F)F)c(F)c4)cc3C2)CC1 [P-0121, 1-(4-(7-(3-fluoro-4-(trifluoromethyl)phen-oxy)-1,2,3,4-tetrahydro-isoquinoline-2-carbon-yl)piperidin-1-yl)prop-2-en-1-one] | 0.001 to 10 µM
O=C(c1cnco1)N1CCc2ccc(Oc3ccc(C(F)(F)F)cc3)cc2C1 [P-0122, oxazol-5-yl(7-(4-(trifluoromethyl)phen-oxy)-3,4-dihydroisoquin-olin-2(1H)-yl)methanone] | 0.001 to 10 µM
NS(=O)(=O)CCC(=O)N1CCc2ccc(Oc3ccc(C(F)(F)F)c(F)c3)cc2C1 [P-0123, 3-(7-(3-fluoro-4-(trifluoromethyl)phen-oxy)-3,4-dihydroisoquin-olin-2(1H)-yl)-3-oxopro-pane-1-sulfonamide] | 0.001 to 10 µM
NC(=O)c1cc(C(=O)N2CCc3ccc(Oc4ccc(C(F)(F)F)cc4)cc3C2)n[nH]1 [P-0124, 3-(7-(4-(trifluorometh-yl)phenoxy)-1,2,3,4-tetrahydroisoquinoline-2-carbonyl)-1H-pyrazole-5-carboxamide] | 0.001 to 10 µM
NS(=O)(=O)CC(=O)N1CCc2ccc(Oc3ccc(C(F)(F)F)cc3)cc2C1 [P-0125, 2-oxo-2-(7-(4-(trifluoro-methyl)phenoxy)-3,4-dihydroisoquinolin-2(1H)-yl)ethane-1-sul-fonamide] | 0.001 to 10 µM
NS(=O)(=O)c1ccc(C(=O)N2CCc3ccc(Oc4ccc(C(F)(F)F)cc4)cc3C2)cc1 [P-0126, 4-(7-(4-(trifluorometh-yl)phenoxy)-1,2,3,4-tetrahydroisoquinoline-2-carbonyl)benzene-sulfonamide] | 0.001 to 10 µM
NC(=O)c1ccc(C(=O)N2CCc3ccc(Oc4ccc(C(F)(F)F)cc4)cc3C2)cn1 [P-0127, 5-(7-(4-(trifluorometh-yl)phenoxy)-1,2,3,4-tetrahydroisoquinoline-2-carbonyl)picolinamide] | 0.001 to 10 µM
CNS(=O)(=O)NCC(=O)N1CCc2ccc(Oc3ccc(C(F)(F)F)cc3)cc2C1 [P-0128, N-methyl-N′-(2-(7-(4-(trifluoromethyl)phen-oxy)-3,4-dihydroisoquin-olin-2(1H)-yl)-2-oxoeth-yl)sulfamide] | 0.001 to 10 µM
O=C1CCC(C(=O)N2CCc3ccc(Oc4ccc(C(F)(F)F)cc4)cc3C2)CN1 (stereo not shown) [P-0129, 5-(7-(4-(trifluoromethyl)-phenoxy)-1,2,3,4-tetra-hydroisoquinoline-2-carbonyl)piperidin-2-one] | 0.001 to 10 µM
O=C1CC(C(=O)N2CCc3ccc(Oc4ccc(C(F)(F)F)cc4)cc3C2)CCN1 (stereo not shown) [P-0130, 4-(7-(4-(trifluoromethyl)-phenoxy)-1,2,3,4-tetra-hydroisoquinoline-2-carbonyl)piperidin-2-one] | 0.001 to 10 µM
CC(C)(C)OC(=O)NCC(=O)N1CCc2ccc(Oc3ccc(C(F)(F)F)cc3)cc2C1 [P-0131, tert-butyl (2-oxo-2-(7-(4-(trifluoromethyl)phen-oxy)-3,4-dihydroisoquin-olin-2(1H)-yl)ethyl)-carbamate] | 0.001 to 10 µM
O=C1CCC(CC(=O)N2CCc3ccc(Oc4ccc(C(F)(F)F)cc4)cc3C2)CN1 (stereo not shown) [P-0132, 5-(2-oxo-2-(7-(4-(trifluoromethyl)phen-oxy)-3,4-dihydroisoquin-olin-2(1H)-yl)ethyl)piper-idin-2-one] | 0.001 to 10 µM
O=C(Cc1cc[nH]n1)N1CCc2ccc(Oc3ccc(C(F)(F)F)cc3)cc2C1 [P-0133, 2-(1H-pyrazol-3-yl)-1-(7-(4-(trifluoromethyl)-phenoxy)-3,4-dihydroiso-quinolin-2(1H)-yl)ethan-1-one] | 0.001 to 10 µM
N#Cc1nc(N2CCc3ccc(Oc4ccc(C(F)(F)F)cc4)cc3C2)cs1 [P-0134, 4-(7-(4-(trifluorometh-yl)phenoxy)-3,4-dihydro-isoquinolin-2(1H)-yl)thi-azole-2-carbonitrile] | 0.001 to 10 µM
CC(NS(C)(=O)=O)C(=O)N1CCc2ccc(Oc3ccc(C(F)(F)F)cc3)cc2C1 (stereo not shown) [P-0135, N-(1-oxo-1-(7-(4-(trifluoromethyl)phen-oxy)-3,4-dihydroisoquin-olin-2(1H)-yl)propan-2-yl)methanesulfonamide] | 0.001 to 10 µM
O=C(NC1(C(=O)N2CCc3ccc(Oc4ccc(C(F)(F)F)cc4)cc3C2)CC1)C(F)(F)F [P-0136, 2,2,2-trifluoro-N-(1-(7-(4-(trifluoromethyl)phen-oxy)-1,2,3,4-tetrahydro-isoquinoline-2-carbonyl)-cyclopropyl)acetamide] | 0.001 to 10 µM
Nc1nc(CC(=O)N2CCc3ccc(Oc4ccc(C(F)(F)F)cc4)cc3C2)cs1 [P-0137, 2-(2-aminothiazol-4-yl)-1-(7-(4-(trifluoromethyl)-phenoxy)-3,4-dihydroiso-quinolin-2(1H)-yl)ethan-1-one] | 0.001 to 10 µM
CN1C(=O)SC(CC(=O)N2CCc3ccc(Oc4ccc(C(F)(F)F)c(F)c4)cc3C2)C1=O (stereo not shown) [P-0138, 5-(2-(7-(3-fluoro-4-(trifluoromethyl)phen-oxy)-3,4-dihydroisoquin-olin-2(1H)-yl)-2-oxoeth-yl)-3-methylthiazolidine-2,4-dione] | 0.001 to 10 µM
O=C(Cc1c[nH]c(=O)[nH]c1=O)N1CCc2ccc(Oc3ccc(C(F)(F)F)c(F)c3)cc2C1 [P-0139, 5-(2-(7-(3-fluoro-4-(trifluoromethyl)phen-oxy)-3,4-dihydroisoquin-olin-2(1H)-yl)-2-oxoeth-yl)pyrimidine-2,4(1H, 3H)-dione] | 0.001 to 10 µM
O=C1N[C@@H](CC(=O)N2CCc3ccc(Oc4ccc(C(F)(F)F)c(F)c4)cc3C2)CO1 [P-0140, (S)-4-(2-(7-(3-fluoro-4-(trifluoromethyl)phen-oxy)-3,4-dihydroisoquin-olin-2(1H)-yl)-2-oxoeth-yl)oxazolidin-2-one] | 0.001 to 10 µM
O=C(CCS(=O)(=O)C(F)(F)F)N1CCc2ccc(Oc3ccc(C(F)(F)F)c(F)c3)cc2C1 [P-0141, 1-(7-(3-fluoro-4-(trifluoromethyl)phen-oxy)-3,4-dihydroiso-quinolin-2(1H)-yl)-3-((trifluoromethyl)sulfon-yl)propan-1-one] | 0.001 to 10 µM
O=C1NCCC1CC(=O)N1CCc2ccc(Oc3ccc(C(F)(F)F)c(F)c3)cc2C1 (stereo not shown) [P-0142, 3-(2-(7-(3-fluoro-4-(trifluoromethyl)phen-oxy)-3,4-dihydroisoquin-olin-2(1H)-yl)-2-oxoeth-yl)pyrrolidin-2-one] | 0.001 to 10 µM
